Reference: article PMC8252765, “Human Oxygenase Variants Employing a Single Protein Fe^II Ligand Are Catalytically Active” (Angewandte Chemie (International Ed. in English), 2021)
Substitutions are numbered along the chain they refer to. Read-outs that look alike come from different tables or passages of the source. Each block holds one compound with its values, some of them ahead of it.

What was measured:
H679A His6-AspH315-758 [1] = molecular target: T1, H679A His6-AspH315-758 (Homo sapiens, UniProt Q12797, H679A); test: H679A AspH variant SPE-MS inhibition assay; format: biochemical
T1 construct: containing H679A or H725A His6-AspH315-758 variant (0.2 μM); made in house; host or cells: E. coli BL21 (DE3), pET-28a(+)
T1 sequence (Q12797 315-758 H679A): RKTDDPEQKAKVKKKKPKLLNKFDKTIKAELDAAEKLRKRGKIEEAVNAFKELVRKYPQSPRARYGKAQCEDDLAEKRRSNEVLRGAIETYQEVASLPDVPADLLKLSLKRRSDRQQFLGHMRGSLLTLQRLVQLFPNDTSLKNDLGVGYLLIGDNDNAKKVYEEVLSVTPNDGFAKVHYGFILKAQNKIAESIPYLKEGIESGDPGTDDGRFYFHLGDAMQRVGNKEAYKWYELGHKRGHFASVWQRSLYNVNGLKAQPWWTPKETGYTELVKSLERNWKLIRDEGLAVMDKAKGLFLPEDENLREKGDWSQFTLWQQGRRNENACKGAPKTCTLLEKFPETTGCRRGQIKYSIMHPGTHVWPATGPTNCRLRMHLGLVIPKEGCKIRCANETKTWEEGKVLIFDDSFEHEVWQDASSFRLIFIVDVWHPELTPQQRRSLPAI

H725A His6-AspH315-758 [2] = molecular target: T2, H725A His6-AspH315-758 (Homo sapiens, UniProt Q12797, H725A); test: H725A AspH variant SPE-MS inhibition assay; format: biochemical
T2 construct: containing H679A or H725A His6-AspH315-758 variant (0.2 μM); made in house; host or cells: E. coli BL21 (DE3), pET-28a(+)
T2 sequence (Q12797 315-758 H725A): T1 sequence (Q12797 315-758 H679A) with A365H, H411A

wt AspH = conditions: cited from earlier work
H679A His6-AspH315-758 [3] = molecular target: T1, H679A His6-AspH315-758; test: Steady-state kinetics of H679A AspH by SPE-MS; format: biochemical; conditions: H679A AspH 0.2 μM, parameter for the varied (co)substrate (label), 25 mM HEPES pH 7.5, n=3
Experimental: Supporting Figure S5. […] Turnover […]
numbers (kapp or k ) and Michaelis constants (Kapp or K ) of the H679A AspH variant were determined in […]
MS (SPE-MS parameters are given i n Section 2 of the Supporting Information ). Conditions: 0.2 μM H679A His6- […]
HEPES (pH 7.5, 20° C). Measurement times were normalized to the first sample injection analysed after the […]
Data are shown as the mean average of three independent runs (n = 3; mean ± standard deviation, SD).
Turnover numbers (kapp or k ) were calculated from the maximum velocities (vapp or v ) values obtained, […]
assuming ideal active site availability as supported by a reported active site titration of wt AspH.[4] […]
substrate in the absence of LAA for the shown Fe(II) concentrations (conditions: 0.2 μM H679A His6-AspH315- […]
substrate in the presence of LAA for the shown Fe(II) concentrations (conditions: 0.2 μM H679A His6-AspH315- […]

H725A His6-AspH315-758 [4] = molecular target: T2, H725A His6-AspH315-758; test: Steady-state kinetics of H725A AspH by SPE-MS; format: biochemical; conditions: H725A AspH 0.2 μM, parameter for the varied (co)substrate (label), 25 mM HEPES pH 7.5, n=3
Experimental: page 11: Supporting Figure S6. Kinetic parameters for […] AspH (continues on the following page). Turnover numbers (kapp or k ) and Michaelis constants (Kapp or K ) of the […] AspH-catalysed hydroxylation of […] peptide by SPE- MS (SPE-MS parameters are given in Section 2 of the Supporting Information). […] HEPES (pH 7.5, 20° C). […] Data are shown as the mean average of three independent runs (n = 3; mean ± standard deviation, SD). Turnover numbers (kapp or k ) were calculated from the maximum velocities (vapp or v ) values obtained, cat cat max max assuming ideal active site availability as supported by a reported active site titration of wt AspH.[4] (a) Time course of the […] AspH for Fe(II) in the absence of LAA; (c) Kapp of […] AspH for Fe(II) in the absence m of LAA. (d) Time course of the […] AspH for Fe(II) in the presence of LAA; (f) Kapp of […] AspH for Fe(II) in the m presence of LAA. […] AspH variant-catalysed hydroxylation reaction of […] (k) hydroxylation rates used to determine kinetic parameters of […] AspH for […]. […] AspH for […] peptide substrate. […]

[5] = tested on: γ‐butyrobetaine hydroxylase; set-up: method as in PMID 22730246; conditions: reported value; cited from earlier work
wt His6-AspH315-758 = tested on: T3, wt His6-AspH315-758; test: Steady-state kinetics of wt AspH by SPE-MS; format: biochemical, human; conditions: wt AspH 0.1 μM, parameter for the varied (co)substrate (label), 25 mM HEPES pH 7.5, 50 mM NaCl, n=3
T3 construct: Conditions: 0.1 μM wt His6-AspH315-758 using; His6 (N); made in house
Experimental: Supporting Figure S4. Kinetic parameters for wt AspH (continues on the following page). Turnover numbers […]
ammonium iron(II) sulfate hexahydrate (FAS, (NH 4)2Fe(SO 4)2·6H2O), both in the presence and absence of L - ascorbic acid (LAA ) monitoring the AspH-catalysed hydroxylation of the hFX-EGFD186-124-4Ser peptide (Supporting Figure S2a) by SPE-MS (SPE-MS parameters are given in Section 2 of the Supporting Information).
Conditions: 0.1 μM wt His6-AspH315-758 using
C; note, to increase enzyme activity, 50 mM NaCl was added to the reaction buffer). Measurement times were normalized to the first sample injection analysed after the addition of the Enzyme Mixture to the Substrate Mixture […]
Data are shown as the mean average of three independent runs (n = 3; mean ± standard deviation, SD). Turnover numbers (kapp) were calculated from the […]
maximum velocities (vapp ) values obtained, assuming ideal active site availability as supported by a reported […]
active site titration of wt AspH.[4]
(a) Time course of the wt AspH-catalysed hydroxylation reaction of the hFX-EGFD186-124-4Ser peptide substrate […]
and 4.0 μM hFX-EGFD1 86-124-4Ser); (b) hydroxylation rates used to determine kinetic parameters of wt AspH for Fe(II) in the absence of LAA; ( c) Kapp of wt AspH for Fe(II) in the absence of LAA.
(d) Time course of the wt AspH-catalysed hydroxylation reaction of the hFX-EGFD186-124-4Ser peptide substrate in the presence of LAA for the shown Fe(II) concentrations (conditions: 0.1 μM wt His6-AspH315-758, 100 μM […]
parameters of wt AspH for Fe(II) in the presence of LAA; (f) Kapp of wt AspH for Fe(II) in the presence of LAA. […]
(g) Time course of the wt AspH-catalysed hydroxylation reaction of the hFX-EGFD186-124-4Ser peptide substrate […]
(1 picture or pasted object on this page, not shown here)

[6] = 0.1 μM H679A AspH, 4.0 μM hFX-EGFD1_86-124-4Ser, 110 μM 2OG, 4 μM Fe^II, SPE-MS, n=2, read-out: IC50
[7] = 0.1 μM H725A AspH, 4.0 μM hFX-EGFD1_86-124-4Ser, 215 μM 2OG, 10 μM Fe^II, SPE-MS, n=2, read-out: IC50

- IC50 (H679A His6-AspH315-758 [1]; [6]): 23100 ± 8600 nM
- IC50 (H725A His6-AspH315-758 [2]; [7]): > 40000 nM
Compound: [Cl][Mn][Cl] [MnCl2]
- IC50 (wt AspH; wt AspH, 2 μM Fe^II, 3 μM 2OG): 5100 ± 1100 nM

Compound: O=C(O)CCC(=O)C(=O)O [2OG, 2‐oxoglutarate]
- Kmapp (H679A His6-AspH315-758 [3]; with LAA (400 μM)): 109 ± 20 µM
- kcatapp (H679A His6-AspH315-758 [3]; with LAA (400 μM)): 0.18 ± 0.01 s⁻¹
- Kmapp (H725A His6-AspH315-758 [4]; with LAA (400 μM)): 211 ± 65 µM
- kcatapp (H725A His6-AspH315-758 [4]; with LAA (400 μM)): 0.08 ± 0.01 s⁻¹
- 2OG Kmapp‐value [5]: 150 to 470 µM

Compound: O=S(=O)([O-])[O-].[Ni+2] [NiSO4]
- IC50 (H679A His6-AspH315-758 [1]; read-out: IC50): 2700 ± 400 nM
- IC50 (H725A His6-AspH315-758 [2]; read-out: IC50): 1800 ± 400 nM
- IC50 (wt AspH): 170 ± 80 nM

Compound: O=C(O)CNC(=O)C(=O)O [N‐oxalyl‐glycine (NOG), N‐oxalylglycine]
- IC50 (H679A His6-AspH315-758 [1]; 0.1 μM H679A AspH, 4.0 μM hFX-EGFD1_86-124-4Ser, 110 μM 2OG, 4 μM Fe^II, SPE-MS, n=2): inactive
- IC50 (H679A His6-AspH315-758 [1]; 0.1 μM H679A AspH, 4.0 μM hFX-EGFD1_86-124-4Ser, 110 μM 2OG, 4 μM Fe^II, SPE-MS, n=2, listed as NOG): does not apparently inhibit
- IC50 (H725A His6-AspH315-758 [2]; 0.1 μM H725A AspH, 4.0 μM hFX-EGFD1_86-124-4Ser, 215 μM 2OG, 10 μM Fe^II, SPE-MS, n=2): inactive
- IC50 (H725A His6-AspH315-758 [2]; 0.1 μM H725A AspH, 4.0 μM hFX-EGFD1_86-124-4Ser, 215 μM 2OG, 10 μM Fe^II, SPE-MS, n=2, listed as NOG): does not apparently inhibit
- IC50 (wt AspH): 1100 ± 300 nM

Compound: O=C(O)c1ccnc(C(=O)O)c1 [pyridine‐2,4‐dicarboxylic acid]
- IC50 (H679A His6-AspH315-758 [1]; read-out: IC50): 130 ± 10 nM
- IC50 (H725A His6-AspH315-758 [2]; read-out: IC50): 11200 ± 1400 nM
- IC50 (wt AspH; wt AspH, 2 μM Fe^II, 3 μM 2OG): 30 ± 10 nM
- IC50 (wt AspH; wt AspH, at 3 μM 2OG): ~30 nM
- IC50 (wt AspH; wt AspH, at 200 μM 2OG): ~100 nM

- Kmapp (H679A His6-AspH315-758 [3]; with LAA (400 μM)): 2.7 ± 0.5 µM
- kcatapp (H679A His6-AspH315-758 [3]; with LAA (400 μM)): 0.19 ± 0.01 s⁻¹
- Kmapp (H679A His6-AspH315-758 [3]; without LAA): 4.4 ± 0.8 µM
- kcatapp (H679A His6-AspH315-758 [3]; without LAA): 0.18 ± 0.01 s⁻¹
- Kmapp (H725A His6-AspH315-758 [4]; with LAA (400 μM)): 8.1 ± 1.8 µM
- kcatapp (H725A His6-AspH315-758 [4]; with LAA (400 μM)): 0.10 ± 0.01 s⁻¹
- Kmapp (H725A His6-AspH315-758 [4]; without LAA): 12.3 ± 3.0 µM
- kcatapp (H725A His6-AspH315-758 [4]; without LAA): 0.09 ± 0.01 s⁻¹
Compound: ammonium iron(II) sulfate hexahydrate [Fe^II]
- Kmapp (wt His6-AspH315-758; with LAA (100 μM)): 4.3 ± 1.6 µM
- kcatapp (wt His6-AspH315-758; with LAA (100 μM)): 0.27 ± 0.04 s⁻¹
- Kmapp (wt His6-AspH315-758; without LAA): 7.2 ± 2.6 µM
- kcatapp (wt His6-AspH315-758; without LAA, hFX-EGFD1 peptide hydroxylation): 0.24 ± 0.04 s⁻¹

Compound: [Cl-].[Cl-].[Co+2] [CoCl2]
- IC50 (H679A His6-AspH315-758 [1]; n=2, read-out: IC50): 1500 ± 200 nM
- IC50 (H725A His6-AspH315-758 [2]; n=2, read-out: IC50): 3000 ± 500 nM
- IC50 (wt AspH): 400 ± 200 nM

- IC50 (H679A His6-AspH315-758 [1]; [6]): 160 ± 10 nM
- IC50 (H725A His6-AspH315-758 [2]; [7]): 160 ± 10 nM
Compound: CC(=O)[O-].CC(=O)[O-].[Zn+2] [Zn(OAc)2]
- IC50 (wt AspH; wt AspH, 2 μM Fe^II, 3 μM 2OG): 50 ± 10 nM
